In one data set the target is T1, human GPR40 (Homo sapiens, UniProt O14842).
T1 construct: expressed in transfected cells; host or cells: CHO(dhfr-) cells: line CHO-hGPR40 No. 104 of WO2004/041266, with a stably expressed NFAT-TA-Luc reporter (CHO(dhfr-)/GPR40-NFAT-Luc)
In words: GPR40 antagonist activity with changes in intracellular calcium concentration as index (NFAT-luciferase reporter, CHO(dhfr-)/GPR40-NFAT-Luc cells). Conditions: CHO cell line expressing human GPR40, NFAT-Luc reporter; GPR40 agonist 3-(4-((6-benzyloxy-2',6'-dimethyl-biphenyl-3-yl)methoxy)phenyl)propanoic acid 40 nM; 4 hr culture; 0.1% fatty acid-free BSA. It is filed as cell-based. The source says: Evaluation of GPR40 antagonist activity with changes in intracellular calcium concentration as index
An assay system of GPR40 antagonist was established as follows. In this assay system, as the GPR40 agonist, 3-(4-((6-benzyloxy-2′,6′-dimethyl-biphenyl-3-yl)methoxy)phenyl)propanoic acid (compound described in Example 340 of WO2004/041266) was used.
First, NFAT-TA was cut out from pNFAT-TA-Luc (manufactured by BD Bioscience Clontech) with HindIII and NheI, the recovered fragment was inserted into pGL3 basic neo digested with HindIII and NheI to give plasmid:pGL3 basic neo NFAT-TA-Luc.
This plasmid was used for “the CHO cell line (CHO-hGPR40 No. 104), which was made to express human GPR40” described in WO2004/041266, and a cell line CHO(dhfr-)/GPR40-NFAT-Luc, wherein a reporter gene was stably expressed by a method known per se, was prepared.
This cell line was diluted with a medium (nucleic acid-free MEM (Minimum Essential Medium)—α medium added with dialyzed FBS (Fetal Bovine Serum) to a final concentration of 10%) in such a manner that 2×10^4 cells/100 μl would be contained, dispensed to a white walled 96 well plate (manufactured by Coster) by 100 μl per well, and cultured overnight in a CO2 incubator. Then the medium was removed by suction from the 96 well plate, and a 10 mM test compound-dimethyl sulfoxide (manufactured by Wako Pure Chemical Industries, Ltd.) solution diluted with a medium (nucleic acid-free MEM—α medium added with bovine serum albumin (BSA) free of fatty acid to a final concentration of 0.1%) to each concentration was added by 50 μl per well. Further, 3-(4-((6-benzyloxy-2′,6′-dimethyl-biphenyl-3-yl)methoxy)phenyl)propanoic acid diluted with a medium (nucleic acid-free MEM-α (medium added with BSA free of fatty acid to a final concentration of 0.1%) to a final concentration of 40 nM was added to the 96 well plate by 50 μl per well.
After culture in a CO2 incubator for 4 hr, the culture medium was removed from the 96 well plate. Then, PicaGene (manufactured by TOYO INK MFG. CO., LTD.) was added to the 96 well plate, and the luciferase activity was determined using PerkinElmer ARVO (trade name, manufactured by PerkinElmer), based on which changes in the intracellular calcium concentration were evaluated. After assay of luciferase activity, nonlinear regression analysis was performed using PRISM 3 (trade name, manufactured by GraphPad) and IC50 value was calculated with changes in the intracellular calcium concentration as an index.
In the same manner as in Experimental Example 1, the IC50 value of the compound of the present invention was calculated.

Where a name gives a salt, the structure may show the parent alone.

T1 sequence (O14842 whole entry): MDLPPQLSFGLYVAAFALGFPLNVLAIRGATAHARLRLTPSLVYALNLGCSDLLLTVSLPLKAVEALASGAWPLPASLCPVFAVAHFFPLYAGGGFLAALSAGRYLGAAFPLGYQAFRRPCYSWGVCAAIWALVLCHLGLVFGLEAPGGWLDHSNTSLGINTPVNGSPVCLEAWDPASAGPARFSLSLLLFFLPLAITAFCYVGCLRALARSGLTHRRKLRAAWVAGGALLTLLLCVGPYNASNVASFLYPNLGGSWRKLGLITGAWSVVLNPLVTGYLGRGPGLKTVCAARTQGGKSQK

Turning to `COc1ccc(-n2c(SCc3ccc(Cl)cc3)nc3cc(Cl)c(Cl)cc32)cc1` [Example 108, 5,6-Dichloro-2-[(4-chlorobenzyl)thio]-1-(4-methoxyphenyl)-1H-benzimidazole], the melting point (usually the temperature, or range, at which the solid turns liquid) fell in the range of 141 to 142 °C. Further, the concentration for half-maximal inhibition (IC50) (in general, the concentration that inhibits the measured activity by half) on human GPR40 is under 100 nM. The corresponding values for `CCOc1ccc(-n2c(NCc3ccc(C(C)(C)C)cc3)nc3cc(Cl)c(Cl)cc32)cc1` [Example 93, N-(4-tert-Butylbenzyl)-5,6-dichloro-1-(4-ethoxyphenyl)-1H-benzimidazol-2-amine] are 186 to 187 °C and under 100 nM.

As to `CCCOc1ccc(-n2c(SCc3ccc(Cl)cc3)nc3cc(Cl)c(Cl)cc32)cc1` [Example 112, 5,6-Dichloro-2-[(4-chlorobenzyl)thio]-1-(4-propoxyphenyl)-1H-benzimidazole], the melting point is 119 to 120 °C. For the same molecule, the IC50 on human GPR40 was under 100 nM. Molecule `COCOc1ccc(-n2c(SCc3ccc(Cl)cc3)nc3ccc(Cl)cc32)cc1` [Example 7, 6-Chloro-2-[(4-chlorobenzyl)thio]-1-[4-(methoxymethoxy)phenyl]-1H-benzimidazole] gave a melting point of 109 to 110 °C. The IC50 at human GPR40 was under 100 nM.

As for `CC(C)(C)c1ccc(CNc2nc3cc(Cl)c(Cl)cc3n2-c2ccc(OCC(F)(F)F)cc2)cc1` [Example 102, N-(4-tert-Butylbenzyl)-5,6-dichloro-1-[4-(2,2,2-trifluoroethoxy)phenyl]-1H-benzimidazol-2-amine], the melting point was in the range of 136 to 137 °C. Also, the half-maximal inhibitory concentration (IC50) at human GPR40 is under 100 nM.

For `CCOc1ccc(-n2c(NCc3ccc(Cl)cc3)nc3cc(Cl)ccc32)cc1` [Example 82, 5-Chloro-N-(4-chlorobenzyl)-1-(4-ethoxyphenyl)-1H-benzimidazol-2-amine], the melting point was 109 to 110 °C. For the same molecule, at human GPR40, the IC50 is under 100 nM. For `CCCOc1ccc(-n2c(NCc3ccc(Cl)cc3)nc3cc(Cl)c(Cl)cc32)cc1` [Example 98, 5,6-Dichloro-N-(4-chlorobenzyl)-1-(4-propoxyphenyl)-1H-benzimidazol-2-amine], in that order: 166 to 167 °C and under 100 nM. For `CCOc1ccc(-n2c(NCc3ccc(Cl)cc3)nc3cc(Cl)c(Cl)cc32)cc1` [Example 94, 5,6-Dichloro-N-(4-chlorobenzyl)-1-(4-ethoxyphenyl)-1H-benzimidazol-2-amine], in that order: 141 to 142 °C and under 100 nM. For the molecule `CCCOc1ccc(-n2c(NCc3ccc(Br)cc3)nc3cc(Cl)c(Cl)cc32)cc1` [Example 97, N-(4-Bromobenzyl)-5,6-dichloro-1-(4-propoxyphenyl)-1H-benzimidazol-2-amine], the melting point lay within 106 to 107 °C. Also, the half-maximal inhibitory concentration (IC50) at human GPR40 is under 100 nM. `CCOc1ccc(-n2c(SCc3ccc(C(C)(C)C)cc3)nc3ccc(Cl)cc32)cc1` [Example 38, 2-[(4-tert-butylbenzyl)thio]-6-chloro-1-(4-ethoxyphenyl)-1H-benzimidazole] yielded a melting point of 142 to 143 °C. In addition, the IC50 at human GPR40 is under 100 nM.

`CCCOc1ccc(-n2c(NCc3ccc(C(C)(C)C)cc3)nc3cc(Cl)c(Cl)cc32)cc1` [Example 96, N-(4-tert-Butylbenzyl)-5,6-dichloro-1-(4-propoxyphenyl)-1H-benzimidazol-2-amine] registered a melting point of 122 to 123 °C. The 50% inhibitory concentration (IC50) at human GPR40 was under 100 nM. With `FC(F)C(F)(F)Oc1ccc(-n2c(SCc3ccc(Cl)cc3)nc3ccc(Cl)cc32)cc1` [Example 135, 6-Chloro-2-[(4-chlorobenzyl)thio]-1-[4-(1,1,2,2-tetrafluoroethoxy)phenyl]-1H-benzimidazole], the melting point is 139 to 140 °C. The half-inhibitory concentration (IC50) at human GPR40 was under 100 nM. Consider `CCCCOc1ccc(-n2c(SCc3ccc(Cl)cc3)nc3cc(Cl)ccc32)cc1.Cl` [Example 122, 1-(4-Butoxyphenyl)-5-chloro-2-[(4-chlorobenzyl)thio]-1H-benzimidazole hydrochloride], for which the melting point was in the range of 83 to 89 °C. Also, the half-inhibitory concentration (IC50) on human GPR40 is under 100 nM. `CCOc1ccc(-n2c(NCc3ccc(C(C)(C)C)cc3)nc3cc(Cl)ccc32)cc1` [Example 81, N-(4-tert-Butylbenzyl)-5-chloro-1-(4-ethoxyphenyl)-1H-benzimidazol-2-amine]: the melting point was in the range of 211 to 212 °C. The half-inhibitory concentration (IC50) at human GPR40 was under 100 nM. As to `CCCOc1ccc(-n2c(SCc3ccc(Cl)cc3)nc3ccc(Cl)cc32)cc1` [Example 12, 6-Chloro-2-[(4-chlorobenzyl)thio]-1-(4-propoxyphenyl)-1H-benzimidazole], the melting point was in the range of 102 to 103 °C. Besides, the IC50 on human GPR40 is under 100 nM.

The molecule `CC(C)(C)c1ccc(CNc2nc3cc(Cl)ccc3n2-c2ccc(OCC(F)(F)F)cc2)cc1` [Example 89, N-(4-tert-Butylbenzyl)-5-chloro-1-[4-(2,2,2-trifluoroethoxy)phenyl]-1H-benzimidazol-2-amine] yielded a melting point of 190 to 191 °C. Further, the IC50 on human GPR40 is under 100 nM.

Molecule `CCCOc1ccc(-n2c(SCc3ccc(Cl)cc3)nc3cc(Cl)ccc32)cc1.Cl` [Example 121, 5-Chloro-2-[(4-chlorobenzyl)thio]-1-(4-propoxyphenyl)-1H-benzimidazole hydrochloride] gave a melting point of 104 to 112 °C. Moreover, the IC50 at human GPR40 is under 100 nM. For `CCOc1ccc(-n2c(SCc3ccc(Cl)cc3)nc3cc(Cl)ccc32)cc1` [Example 65, 5-Chloro-2-[(4-chlorobenzyl)thio]-1-(4-ethoxyphenyl)-1H-benzimidazole hydrochloride], the IC50 at human GPR40 is under 100 nM. In the case of `CCCOc1ccc(-n2c(NCc3ccc(C(C)(C)C)cc3)nc3ccc(Cl)cc32)cc1` [Example 73, N-(4-tert-Butylbenzyl)-6-chloro-1-(4-propoxyphenyl)-1H-benzimidazol-2-amine], the melting point is 98 to 100 °C. Besides, on human GPR40, the 50% inhibitory concentration (IC50) was under 100 nM. As for `CCOc1ccc(-n2c(SCc3ccc(C(F)(F)F)cc3)nc3ccc(Cl)cc32)cc1` [Example 33, 6-Chloro-1-(4-ethoxyphenyl)-2-{[4-(trifluoromethyl)benzyl]thio}-1H-benzimidazole], the melting point was in the range of 103 to 104 °C. The half-maximal inhibitory concentration (IC50) on human GPR40 is under 100 nM. Turning to `CCCCOc1ccc(-n2c(NCc3ccc(C(C)(C)C)cc3)nc3ccc(Cl)cc32)cc1` [Example 75, 1-(4-Butoxyphenyl)-N-(4-tert-butylbenzyl)-6-chloro-1H-benzimidazol-2-amine], on human GPR40, the IC50 was under 100 nM. Regarding `CCOc1ccc(-n2c(NCc3ccc(Br)cc3)nc3ccc(Cl)cc32)cc1` [Example 50, N-(4-Bromobenzyl)-6-chloro-1-(4-ethoxyphenyl)-1H-benzimidazol-2-amine], the 50% inhibitory concentration (IC50) on human GPR40 is under 100 nM.

Consider `COc1ccc(-n2c(NCc3ccc(C(C)(C)C)cc3)nc3cc(Cl)c(Cl)cc32)cc1` [Example 92, N-(4-tert-Butylbenzyl)-5,6-dichloro-1-(4-methoxyphenyl)-1H-benzimidazol-2-amine], for which the IC50 on human GPR40 is under 100 nM.

Consider `CCCCOc1ccc(-n2c(NCc3ccc(C(C)(C)C)cc3)nc3cc(Cl)c(Cl)cc32)cc1` [Example 99, 1-(4-butoxyphenyl)-N-(4-tert-butylbenzyl)-5,6-dichloro-1H-benzimidazol-2-amine], for which, on human GPR40, the IC50 was under 100 nM.

The values are drawn from patent publication US20080021069A1, “Receptor Function Regulating Agent” (TAKEDA PHARMACEUTICAL COMPANY LIMITED, priority 2004, published 2008).
